Measured values taken from patent publication US20250208149A1, “WEE1 COMPOUND FOR TREATING UTERINE SEROUS CARCINOMA” (Recurium IP Holdings, LLC, priority 2022, published 2025).
“Also recorded” adds a separate entry of the source.

Legend:
Assay type in all cases: cell-based
H1975 lung cancer cells = assay: ZN-c3 dose response, percent cell density (cell titer glow), CRISPR knockout of PPP2R1A vs non-targeting guide RNA; settings: Homo sapiens, NCI-H1975, 72 h
Protocol: FIG. 15 depicts the percent cell density of H1975 lung cancer cells after treatment with a 10-point dose response of ZN-c3 for 72 hours, comparing cells transduced with a non-targeting guide RNA to against those with genetic knockout of PPP2R1A after transduction with a CRISPR guide RNA targeting PPP2R1A. Percent cell density is calculated using cell titer glow analysis. PPP2R1A CRISPR knockout cells have approximately 1.9 fold increase in sensitivity to ZN-c3 (TABLE 8).
Having observed that siRNA mediated knockdown of PPP2R1A sensitized cancer cell lines to treatment with ZN-c3, it was also of interest to evaluate if CRISPR mediated PPP2R1A knockout produced a similar effect. Various cancer cell lines were transfected with a CRISPR guide RNA targeting PPP2R1A or nontargeting guide RNA and the cells were treated with a 10-point dose response of ZN-c3 for 72 hours. […] Percent cell density was calculated using cell titer glow analysis.
The lung cancer cell line H1975 was treated with a CRISPR guide RNA targeting PPP2R1A or nontargeting guide RNA and transfected cells were assessed for sensitivity to ZN-c3 by measurement of reduction in percent cell density (FIG. 15). CRISPR mediated knockout of PPP2R1A was evaluated by comparison of PPP2R1A expression in conditions treated with nontargeting guide RNA and PPPR12A targeting CRISPR guide RNA (FIG. 16).

[1] = system: OV17R ovarian cancer cells; assay: Percent inhibition of cell growth, ZN-c3, LB-100 or ZN-c3+LB-100 (cell titer glow); settings: OV17R (PPP2R1A S256F), 72 hours; ZN-c3 75 nM, LB-100 1 μM
Protocol: FIG. 19 depicts the percent inhibition of cell growth in OV17R ovarian cancer cells after treatment with ZN-c3 alone, the PP2A catalytic inhibitor LB-100 alone, or the combination of ZN-c3+LB-100. OV17R has the PPP2R1A missense mutation S256F. Percent inhibition is calculated using cell titer glow analysis.
Following observations that both knockdown and knockout of PPP2R1A could sensitize cancer cells to Zn-C3, the effects of pharmacological inhibition of PPP2R1A with the catalytic inhibitor LB-100 were evaluated. Various cancer cell lines were treated with ZN-c3 alone, the PP2A catalytic inhibitor LB-100 alone, or the combination of ZN-c3+LB-100. As in Example 1 and Example 2, the treatment period was 72 hours and percent inhibition was calculated using cell titer glow analysis.
The ovarian cancer cell line OV17R was assessed for sensitivity to ZN-c3 alone, LB-100 alone, or the combination of ZN-c3+LB-100 (FIG. 19).

[2] = system: HEC-59 endometrial cancer cells; assay: Percent inhibition of cell growth, ZN-c3, LB-100 or ZN-c3+LB-100 after siCTRL or siPPP2R1A (cell titer glow); settings: 72 hours, ZN-c3 300 nM, LB-100 1 μM
Protocol: FIG. 20 depicts the percent inhibition of cell growth in HEC-59 endometrial cancer cells after treatment with ZN-c3 alone, the PP2A catalytic inhibitor LB-100 alone, or the combination of ZN-c3+LB-100 after siRNA mediated knockdown of PPP2R1A. […] Percent inhibition is calculated using cell titer glow analysis.
Various cancer cell lines were treated with ZN-c3 alone, the PP2A catalytic inhibitor LB-100 alone, or the combination of ZN-c3+LB-100. As in Example 1 and Example 2, the treatment period was 72 hours and percent inhibition was calculated using cell titer glow analysis.
The endometrial cancer cell line HEC-59 was assessed for sensitivity to ZN-c3 alone, LB-100 alone, or the combination of ZN-c3+LB-100 following treatment with siCTRL or siPPP2R1A (FIG. 20).

SW620 cells = assay: ZN-c3 dose response, percent cell density (cell titer glow), PPP2R1A siRNA vs scrambled control; settings: Homo sapiens, SW-620, 72 h
Protocol: FIG. 7 depicts the percent cell density of SW620 (a colorectal cancer cell line) cells after treatment with a 10-point dose response of ZN-c3 for 72 hours, comparing cells transfected with siRNA to PPP2R1A against those transfected with a scrambled control siRNA. Percent cell density is calculated using cell titer glow analysis. PPP2R1A siRNA transfected cells have approximately 1.9-fold increase in sensitivity to ZN-c3 (TABLE 4).
The effect of PPP2R1A knockdown on influencing cancer cell susceptibility to ZN-c3 was evaluated. Various cancer cell lines were transfected with PPP2R1A siRNA or control scrambled siRNA and the cells were treated with a 10 point dose response of ZN-c3 for 72 hours. Percent cell density was calculated using cell titer glow analysis. The PPP2R1A siRNA targeted the following bases Chr.19: 52189802-52226425. SiRNA transfection was started 48 hours prior to treatment with ZN-c3. […]
A colorectal cancer cell line SW620 was treated with PPP2R1A siRNA or control siRNA and transfected cells were assessed for sensitivity to ZN-c3 by measurement of reduction in percent cell density (FIG. 7). PPP2R1A siRNA mediated knockdown of PPP2R1A was evaluated by comparison of PPP2R1A expression in conditions treated with siCTRL and siPPPR12A (FIG. 8).

[3] = system: OV17R ovarian cancer cells; assay: ZN-c3 dose response, percent cell density (cell titer glow)
Protocol: FIG. 17 depicts the percent cell density of OV17R ovarian cancer cells after treatment with a 10-point dose response of ZN-c3 for 72 hours. OV17R has the S256F hotspot missense mutation in PPP2R1A. […] Percent cell density is calculated using cell titer glow analysis.
Having observed that siRNA mediated knockdown of PPP2R1A sensitized cancer cell lines to treatment with ZN-c3, it was also of interest to evaluate if CRISPR mediated PPP2R1A knockout produced a similar effect. Various cancer cell lines were transfected with a CRISPR guide RNA targeting PPP2R1A or nontargeting guide RNA and the cells were treated with a 10-point dose response of ZN-c3 for 72 hours. The 10-point dose response to ZN-c3 included the same dosages used in Example 1. As in Example 1, no media change was performed during the 72-hour ZN-c3 dose response evaluation period. Fewer than 20 cell passages were completed between the CRISPR mediated knockout and ZN-c3 treatment. CRISPR was performed by targeting PPP2R1A with a PPP2R1A sgRNA sequence. Percent cell density was calculated using cell titer glow analysis.
The ovarian cancer cell line OV17R was assessed for sensitivity to ZN-c3 by measurement of reduction in percent cell density (FIG. 17).

EC50 (H1975 lung cancer cells; sgNT (non-targeting guide RNA)): 516 nM
EC50 (H1975 lung cancer cells; sgPPP2R1A (CRISPR knockout)): 275 nM
EC50 (SW620 cells; siCTRL): 450 nM
EC50 (SW620 cells; siPPP2R1A): 236 nM
EC50 ([3]; OV17R cells (PPP2R1A S256F), 72 hours): 139 nM
Structure (SMILES): C=CCn1c(=O)c2cnc(Nc3ccc(N4CCN(C)CC4)cc3)nc2n1-c1ccc2c(n1)[C@@](O)(CC)CC2 [ZN-c3, (R)-2-allyl-1-(7-ethyl-7-hydroxy-6,7-dihydro-5H-cyclopenta[b]pyridin-2-yl)-6-((4-(4-methylpiperazin-1-yl)phenyl)amino)-1,2-dihydro-3H-pyrazolo[3,4-d]pyrimidin-3-one]
percent inhibition of cell growth [1]: approximately 30%
percent inhibition of cell growth ([2]; HEC-59, siCTRL): approximately 12%
percent inhibition in siPPP2R1A treated cells compared to siCTRL treated cells ([2]; HEC-59, siPPP2R1A): approximately doubled
sensitivity of cell line to ZN-c3 treatment ([3]; OV17R cells (PPP2R1A S256F hotspot missense mutation)): highly susceptible; also recorded: highly sensitive
